In PMC8385015, “Tumour-on-chip microfluidic platform for assessment of drug pharmacokinetics and treatment response” (Communications Biology, 2021):
Where “and” joins values, the source holds several entries; their conditions need not be identical. Identical values can stand only once.

Assays:
SW620 spheroids [1] = assay: SW620 spheroid viability (CellTiterGlo 3D), microfluidic Ibidi chip; assay type: cell-based
Text: The tested schedules were designed to recapitulate mouse plasma PK profiles from similar schedules used in in vivo efficacy studies (Table 1) with a desire to reverse translate in vivo data and to evaluate the predictive ability of our microfluidic chip setup. […] We investigated changes in the spheroid volume, as well as viability using the CellTiterGlo assay. To evaluate whether our system could also be used to monitor treatment impact on pharmacodynamic biomarkers, we collected individual spheroids at the end of the treatment period and performed immunofluorescence analysis for γH2AX (DNA double strand break marker), cleaved caspase 3 (apoptosis) and Ki67 (proliferation marker), as detailed in “Methods” section and Supplementary Fig. 2. Each treatment condition was repeated at least three times and measurements for each condition were pooled from at least six spheroid replicates.
To mimic in vivo anti-cancer drugs PK profile at a constant flow rate, an 8-point concentration scale for specific durations was used. Each drug was delivered at a specific concentration, for a specific amount of time, consistent with the average concentration for the same durations in vivo, on a 24-h step schedule.
Each compound concentration/timing represented an average of the corresponding in vivo plasma values, measured by mass spectrometry (Supplementary Methods 4 and 5).
Spheroid viability assessment used a metabolic method (CellTiterGlo 3D, G9681, Promega) by measuring luminescence units expressed by individually recovered spheroids. Each chip bottom polymer film was cut using a scalpel and spheroids were individually collected and transferred in 25 µL media to the wells of a half area 96-well plate (1/2 AreaPlate-96, white, 6002290, Perkin-Elmer). CellTiterGlo vial was allowed to thaw (1 h, room temperature) and 25 µL reagent were added to each spheroid well. Plates were lidded with black sealing tape (Nunc, 731-0750, VWR) and placed on and orbital shaker for 40′. Luminescence levels were measured using a SpectraMax i3X (Molecular Devices, USA).

[2] = In vivo PK profile determination in mouse plasma (LC-MS/MS, population-based PK model); conditions: for In vivo drug free concentrations: SN38 after irinotecan 50 mg/kg
Experimental: The samples were collected at 5, 15, 40 min, and 1, 2, 4, 6, 8 and 24 h.
Whole blood was mixed 1:5 with PBS and centrifuged at 1500×g for 3 min at 4 °C, and the plasma was extracted and frozen at –80 °C.
Using this PK model, a time course of free plasma concentrations of both drugs was simulated (Table 1).
Acidified acetonitrile ([…]) was added with the internal standard, followed by centrifugation at 3000 rpm for 10 min. Supernatant ([…]) was then removed to a clean plate and dried under nitrogen. […]
Supplementary Method 8. Pharmacokinetic models parameters used for simulations
AZD156 PK model and PK parameters used for simulations

SW620 spheroids [3] = assay: SW620 spheroid viability (CellTiterGlo), static plate format; assay type: cell-based; conditions: 6 days
Experimental: In microfluidic Ibidi chip, tumour spheroids were exposed to eight different concentrations in a gradient fashion mimicking the in vivo pharmacokinetic profile and treatment schedule for both drugs. c Spheroids were imaged in situ (plate/chip) at the end of the treatment and their volumes calculated from average radius deducted from min/max Feret. d Spheroid viability was measured at the end of the treatment by CellTiterGlo assay (d). N = 6 per condition from two independent experiments. Box-plots show median (centre line); box limits are 25th to 75th percentile; whiskers represent min and max values. Statistical analysis was performed using 1-way ANOVA.
From the same experimental setup, we explored SW620 spheroid viability at 6 days for static and microfluidic setup (Fig. 2d).
Compounds were dispensed in each well using an automated HP D300 digital dispenser (Tecan, UK).
Spheroid viability assessment used a metabolic method (CellTiterGlo 3D, G9681, Promega) by measuring luminescence units expressed by individually recovered spheroids. […] CellTiterGlo vial was allowed to thaw (1 h, room temperature) and 25 µL reagent were added to each spheroid well. […] Luminescence levels were measured using a SpectraMax i3X (Molecular Devices, USA).

## CCc1c2c(nc3ccc(O)cc13)-c1cc3c(c(=O)n1C2)COC(=O)[C@]3(O)CC [SN38]
SW620 spheroids [1]; Microfluidic Ibidi chip, 6 days, CellTiterGlo, replicates (Fig 2d raw data), unit not given
  spheroid viability: 62.9 and 51.36 and 50.85 and 54.46 and 62.33 and 64.07 (2×)
SW620 spheroids [1]; microfluidic chip, SN38 mono (1d), day 7, single spheroids
  spheroid viability: 6192690 RLU and 5479774 RLU and 8813513 RLU and 7953995 RLU and 8522809 RLU and 9260029 RLU and 5533818 RLU and 5710166 RLU
SW620 spheroids [1]; microfluidic, dosed to mimic in vivo PK profile, 6 days
  reduction in viability: ~ 40%
[2]; mouse plasma, time 1 h
  In vivo drug free concentrations: 5.5 nM
[2]; mouse plasma, time 2 h
  In vivo drug free concentrations: 4.7 nM
[2]; mouse plasma, time 3 h
  In vivo drug free concentrations: 4.4 nM
[2]; mouse plasma, time 4 h
  In vivo drug free concentrations: 4.1 nM
[2]; mouse plasma, time 5 h
  In vivo drug free concentrations: 3.6 nM
[2]; mouse plasma, time 6 h
  In vivo drug free concentrations: 3.1 nM
[2]; mouse plasma, time 7 h
  In vivo drug free concentrations: 2.8 nM
[2]; mouse plasma, time 8 h
  In vivo drug free concentrations: 2.4 nM
[2]; mouse plasma, time 9 h
  In vivo drug free concentrations: 2.1 nM
[2]; mouse plasma, time 10 h
  In vivo drug free concentrations: 1.9 nM
[2]; mouse plasma, time 11 h
  In vivo drug free concentrations: 1.7 nM
[2]; mouse plasma, time 12 h
  In vivo drug free concentrations: 1.6 nM
[2]; mouse plasma, time 13 h
  In vivo drug free concentrations: 1.5 nM
[2]; mouse plasma, time 14 h
  In vivo drug free concentrations: 1.4 nM
[2]; mouse plasma, time 15 h
  In vivo drug free concentrations: 1.2 nM
[2]; mouse plasma, time 16 h
  In vivo drug free concentrations: 1.1 nM
[2]; mouse plasma, time 17 h
  In vivo drug free concentrations: 1.1 nM
[2]; mouse plasma, time 18 h
  In vivo drug free concentrations: 0.9 nM
[2]; mouse plasma, time 19 h
  In vivo drug free concentrations: 0.9 nM
[2]; mouse plasma, time 20 h
  In vivo drug free concentrations: 0.8 nM
[2]; mouse plasma, time 21 h
  In vivo drug free concentrations: 0.7 nM
[2]; mouse plasma, time 22 h
  In vivo drug free concentrations: 0.7 nM
[2]; mouse plasma, time 23 h
  In vivo drug free concentrations: 0.6 nM
[2]; mouse plasma, time 24 h
  In vivo drug free concentrations: 0.6 nM
[2]; mouse plasma, between 2-4h from treatment onset
  in vivo average measured concentration: 4.36 nM
[2]; read-out: maximum mouse plasma concentration (Cmax), 50 mg/kg irinotecan (SN38), 10 mg/kg AZD0156
  Cmax: 5.5 nM
SW620 spheroids [3]; Static plate format, CellTiterGlo, replicates (Fig 2d raw data), unit not given
  spheroid viability: 36.02 and 31.7 and 39.52
SW620 spheroids [3]; static, continuous exposure
  reduction in spheroid viability: ~ 60%
